For test [1], the system named is INS-1E cytokine-induced mitochondrial depolarization, JC-1 ratio, 48 h. Kind of test: protection from cytokine-induced mitochondrial depolarization, dose response, cell-based, INS-1E, JC-1 fluorescence ratio, dry powder (AID 488931).
Experiment in test [2]: as above
To be noted: INS-1E cytokine-induced mitochondrial depolarization, JC-1 ratio, 48 h; at 19.5 µM (top of the series).

Active and inactive are the calls of the source.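 How the source made its calls: active means rising protection curve whose AC50 sits at or below ten times the top dose tested for that sample; inconclusive means flat response between 30 and 70 percent, or poor fit; inactive means the rest.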 Some results are limits rather than exact numbers.

Consider `COc1ccc(S(=O)(=O)N(C)C[C@@H]2Oc3c(NC(=O)Nc4ccccc4)cccc3C(=O)N([C@H](C)CO)C[C@H]2C)cc1`, for which the AC50 (usually the midpoint of the concentration-response curve, whichever way the signal moves) in test [1] is > 19.5 µM (inactive).

Turning to `COc1ccc(S(=O)(=O)N(C)C[C@@H]2Oc3c(NC(=O)NC4CCCCC4)cccc3C(=O)N([C@@H](C)CO)C[C@H]2C)cc1`, the protection from depolarization in test [2] is 16.4% (inactive).

In the case of `COc1ccc(S(=O)(=O)N(C)C[C@@H]2Oc3c(NS(=O)(=O)c4ccc(C)cc4)cccc3C(=O)N([C@@H](C)CO)C[C@H]2C)cc1`, the protection from depolarization in test [2] is 2.95% (inactive).

For `C[C@@H]1CN([C@@H](C)CO)C(=O)c2cccc(NC(=O)Nc3cccc4ccccc34)c2O[C@H]1CN(C)S(=O)(=O)c1ccccc1F`, the protection from depolarization in test [2] was -1.29% (inactive).
